pIC50: −log10 of the molar value.
What was measured:
[1] = molecular target: T1, menin/MLL (Gal4-Menin and MLL1-46-VP16) in HEK293 cells (Homo sapiens, UniProt O00255); assay: Mammalian cellular two-hybrid assay in HEK293 cells (Assay 2, cell assay); type: cell-based; conditions: Gal4-Menin/MLL1-46-VP16 two-hybrid, NanoLuc luciferase reporter, 16-18 h
T1 construct: expressed in transfected cells; host or cells: HEK293 (ATCC)
Protocol: Potencies of inhibitor compounds against menin/MLL were tested in a mammalian cellular two-hybrid assay system. HEK293 cells (American Type Culture Collection (ATCC); Manassas, Va.) were co-transfected with three plasmids: one encoding Gal4-Menin (200 ng per 10^6 cells), another encoding MLL1-46-VP16 (100 ng per 10^6 cells), and a reporter plasmid pNL3.3-4×UAS (500 ng per 10^6 cells) encoding secreted NanoLuc® luciferase (Promega) with the upstream 4×UAS repeats for Gal4 binding. Transfection was performed in Opti-MEM® media using Lipofectamine® LTX with Plus™ Reagent (ThermoFisher Scientific) according to manufacturer's protocol. Cells were incubated with transfection reagents at 37° C. 5% CO2 for 5-6 h, harvested by trypsinization and centrifugation at 300×g for 5 min and resuspended in Gibco® DMEM media (phenol red-free, no antibiotics) containing 10% delipidated fetal bovine serum (FBS) (ThermoFisher Scientific). Concentration of cells in the media was adjusted to 3.5×10^5 cells/ml, and 100 μl of the cell suspension was dispensed into each well of 96-well Costar™ black clear bottom cell culture plates (Fisher Scientific). Tested compounds were added as 100 μL of 2× solutions in the media. Final concentration of DMSO was 0.1% in all wells. The cells were incubated with tested compounds at 37° C. 5% CO2 for 16-18 h. At the end of the incubation, 40 μL of the conditioned media from each well was transferred into each well of 96-well Costar™ black half-area plates (Fisher Scientific), to which 40 μl of 2× reconstituted NanoGlo® luciferase assay reagent (Promega) was added and thoroughly mixed on a microshaker for 2-3 min. Remaining media in the culture plates was removed by emptying the wells and blotting the plates on filter paper. The cells were lysed with 1× CellTiter-Glo® Luminescent Cell Viability Assay reagent (Promega) for assessing toxicity of the tested compounds. Both, Nano-Glo® and CellTiter-Glo® luminescence intensities were measured on EnVision® multilabel plate reader (PerkinElmer). Percent inhibition values were calculated based on Nano-Glo® luciferase activity observed with the tested compounds vs. DMSO control and commercially available menin inhibitor MI-2-2 (4-(4-(5,5-Dimethyl-4,5-dihydrothiazol-2-yl)piperazin-1-yl)-6-(2,2,2-trifluoroethyl)thieno[2,3-d]pyrimidine) (EMD Millipore, Cat. No. 444825) incubated with cells at 5 μM. These percent inhibition values were regressed against compound concentrations in the assay using non-linear 4-parameter logit curve fitting (XLFit, IDBS). Half maximal inhibitory concentrations (IC50) were calculated as the parameters of the fit corresponding to the inflection points on semi-logarithmic dose-response curves.

[2] = molecular target: T2, wild-type menin / MLL-AF9 fusion protein (Homo sapiens, UniProt O00255); assay: AlphaLISA menin/MLL binding assay, wild-type menin (Assay 1); conditions: biotinylated wild-type menin 5 nM, MLL-AF9-FLAG lysate
T2 construct: made in house; host or cells: E. coli (menin); HEK293 cleared lysate (MLL-AF9-FLAG)
T2 sequence (O00255 1-610): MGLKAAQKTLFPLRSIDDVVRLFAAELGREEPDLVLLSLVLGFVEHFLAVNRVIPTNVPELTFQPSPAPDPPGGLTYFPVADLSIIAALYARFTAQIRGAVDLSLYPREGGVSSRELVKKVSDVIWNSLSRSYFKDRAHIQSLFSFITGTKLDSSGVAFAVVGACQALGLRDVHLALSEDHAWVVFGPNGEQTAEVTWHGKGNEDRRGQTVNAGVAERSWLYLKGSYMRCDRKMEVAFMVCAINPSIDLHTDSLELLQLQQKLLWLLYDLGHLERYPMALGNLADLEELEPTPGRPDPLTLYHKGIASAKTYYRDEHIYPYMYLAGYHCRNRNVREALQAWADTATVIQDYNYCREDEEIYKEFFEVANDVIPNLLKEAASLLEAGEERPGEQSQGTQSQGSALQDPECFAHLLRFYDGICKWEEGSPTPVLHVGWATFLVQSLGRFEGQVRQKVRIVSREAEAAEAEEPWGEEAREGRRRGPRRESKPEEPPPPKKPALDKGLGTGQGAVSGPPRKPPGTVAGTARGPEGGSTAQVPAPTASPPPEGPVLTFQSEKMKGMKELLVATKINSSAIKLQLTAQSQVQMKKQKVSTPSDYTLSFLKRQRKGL
Protocol: Potencies of inhibitor compounds against menin/MLL binding were assessed by AlphaLISA assay using biotinylated (1) wild-type menin or (2) mutated menin (described in Nature (2012) Vol. 482, pp. 542-548) and MLL-AF9 fusion protein bearing a FLAG epitope at its C-terminus. Menin proteins were expressed in E. coli and covalently modified with biotin using EZ-Link™ Sulfo-NHS-Biotin (ThermoFisher Cat. No. 21217) according to manufacturer's protocol. MLL1-1,396 fused to AF91-92 and the C-terminal FLAG peptide was expressed in HEK293 cells and used as a lysate cleared at 21,000×g for 10 min.
Compounds (2 μL of solutions in DMSO) were dispensed in white 96-well half-area plates (Corning Cat. No. 3693) and incubated for 30 min at RT with 5 nM biotinylated menin and appropriate amount of MLL-AF9-FLAG lysate in 40 μL of 50 mM Tris-HCl buffer pH 7.4 containing 5% (v/v) DMSO, 50 mM NaCl, 0.01% (w/v) bovine serum albumin (BSA) and 1 mM DTT. To this incubation mixture, 40 μl of AlphaLISA anti-FLAG acceptor (PerkinElmer Cat. No. AL112C) and streptavidin donor (PerkinElmer Cat. No. 6760002) beads (10 μg/mL each) was added and incubation continued at RT for 60 min. Alpha (amplified luminescent proximity homogeneous assay) signal was measured on an Envision multi-label plate reader at the end of the incubation. All steps were conducted under dim fluorescent light.
These percent inhibition values were regressed against compound concentrations in the assay using four parameter logit non-linear curve fitting (XLFit, IDBS). The IC50 values were derived from the curve fitting as inflection points on the dose-response curves and are set out in Table 1 below.

T1 sequence (P04386 1-147 partner limits assumed, species assumed, one chain of several): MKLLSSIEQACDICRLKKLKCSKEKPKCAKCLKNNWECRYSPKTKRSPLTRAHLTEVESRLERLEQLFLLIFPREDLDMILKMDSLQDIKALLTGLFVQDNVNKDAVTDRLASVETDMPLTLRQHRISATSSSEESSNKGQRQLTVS

SMILES | pIC50 [1] | pIC50 [2]
Cc1c(CN2CCC3(CCN(c4ncnc5sc(CC(F)(F)F)cc45)C3)C2)ccc2[nH]c(C#N)cc12 (racemic) [Example 30, 4-methyl-5-((7-(6-(2,2,2-trifluoroethyl)thieno[2,3-d]pyrimidin-4-yl)-2,7-diazaspiro[4.4]nonan-2-yl)methyl)-1H-indole-2-carbonitrile] | > 7.00 | > 7.00
Cc1c(CN2CCC3(CCN(c4ncnc5sc(CC(F)(F)F)cc45)C3)C2)ccc2[nH]c(C#N)cc12 (single isomer, unassigned) [Example 30a, 4-methyl-5-((7-(6-(2,2,2-trifluoroethyl)thieno[2,3-d]pyrimidin-4-yl)-2,7-diazaspiro[4.4]nonan-2-yl)methyl)-1H-indole-2-carbonitrile] | > 7.00 | > 7.00
FC(F)(F)Cc1cc2c(N3CCC4(CC3)CN(Cc3ccccc3)C4)ncnc2s1 [Example 1, 4-(2-benzyl-2,7-diazaspiro[3.5]nonan-7-yl)-6-(2,2,2-trifluoroethyl) thieno[2,3-d]pyrimidine] | ≤ 6.00 | ≤ 6.00
CC(C)CN1CC2(CCN(c3ncnc4sc(CC(F)(F)F)cc34)CC2)C1 [Example 2, 4-(2-isobutyl-2,7-diazaspiro[3.5]nonan-7-yl)-6-(2,2,2-trifluoroethyl)thieno[2,3-d]pyrimidine] | ≤ 6.00 | 6.00 to 7.00
FC(F)(F)Cc1cc2c(N3CC4(CCN(Cc5ccccc5)C4)C3)ncnc2s1 [Example 95, 4-(6-benzyl-2,6-diazaspiro[3.4]octan-2-yl)-6-(2,2,2-trifluoroethyl)thieno[2,3-d]pyrimidine] |  | ≤ 6.00
CCC(C)CN1CCC2(CC1)CN(c1ncnc3sc(CC(F)(F)F)cc13)C2 (centres unmarked) [Example 100, 4-(7-(2-methylbutyl)-2,7-diazaspiro[3.5]nonan-2-yl)-6-(2,2,2-trifluoroethyl)thieno[2,3-d]pyrimidine] |  | 6.00 to 7.00
CC(C)CN1CCC2(CC1)CN(c1ncnc3sc(CC(F)(F)F)cc13)C2 [Example 101, 4-(7-isobutyl-2,7-diazaspiro[3.5]nonan-2-yl)-6-(2,2,2-trifluoroethyl)thieno[2,3-d]pyrimidine] |  | 6.00 to 7.00
FC(F)(F)Cc1cc2c(N3CC4(CCN(C[C@H]5CC[C@H](C(F)(F)F)CC5)CC4)C3)ncnc2s1 [Example 102, 6-(2,2,2-trifluoroethyl)-4-(7-(((1r,4r)-4-(trifluoromethyl)cyclohexyl)methyl)-2,7-diazaspiro[3.5]nonan-2-yl)thieno[2,3-d]pyrimidine] |  | 6.00 to 7.00
CC(=O)Nc1ccc(CN2CCC3(CC2)CN(c2ncnc4sc(CC(F)(F)F)cc24)C3)cc1 [Example 103, N-(4-((2-(6-(2,2,2-trifluoroethyl)thieno[2,3-d]pyrimidin-4-yl)-2,7-diazaspiro[3.5]nonan-7-yl)methyl)phenyl)acetamide] |  | 6.00 to 7.00
O=S1(=O)CCC(N2CCC3(CC2)CN(c2ncnc4sc(CC(F)(F)F)cc24)C3)CC1 [Example 104, 4-(2-(6-(2,2,2-trifluoroethyl)thieno[2,3-d]pyrimidin-4-yl)-2,7-diazaspiro[3.5]nonan-7-yl)tetrahydro-2H-thiopyran 1,1-dioxide] |  | 6.00 to 7.00
CC(=O)N[C@H]1CC[C@H](CN2CCC3(CC2)CN(c2ncnc4sc(CC(F)(F)F)cc24)C3)CC1 [Example 105, N-((1r,4r)-4-((2-(6-(2,2,2-trifluoroethyl)thieno[2,3-d]pyrimidin-4-yl)-2,7-diazaspiro[3.5]nonan-7-yl)methyl)cyclohexyl)acetamide] |  | 6.00 to 7.00
FC(F)(F)Cc1cc2c(N3CCC4(CN(Cc5ccccc5)C4)C3)ncnc2s1 [Example 111, 4-(2-benzyl-2,6-diazaspiro[3.4]octan-6-yl)-6-(2,2,2-trifluoroethyl)thieno[2,3-d]pyrimidine] |  | 6.00 to 7.00
Cc1c(CN2CC3(CCN(c4ncnc5sc(CC(F)(F)F)cc45)C3)C2)ccc2[nH]c(C#N)cc12 [Example 112, 4-methyl-5-((6-(6-(2,2,2-trifluoroethyl)thieno[2,3-d]pyrimidin-4-yl)-2,6-diazaspiro[3.4]octan-2-yl)methyl)-1H-indole-2-carbonitrile] |  | 6.00 to 7.00
CC(C)CN1CCC2(CC1)CCN(c1ncnc3sc(CC(F)(F)F)cc13)C2 [Example 113, 4-(8-isobutyl-2,8-diazaspiro[4.5]decan-2-yl)-6-(2,2,2-trifluoroethyl)thieno[2,3-d]pyrimidine] |  | 6.00 to 7.00
CCC(C)CN1CCC2(CC1)CCN(c1ncnc3sc(CC(F)(F)F)cc13)C2 (centres unmarked) [Example 114, 4-(8-(2-methylbutyl)-2,8-diazaspiro[4.5]decan-2-yl)-6-(2,2,2-trifluoroethyl)thieno[2,3-d]pyrimidine] |  | 6.00 to 7.00
FC(F)(F)Cc1cc2c(N3CCC4(CCN(CC5CCOCC5)CC4)C3)ncnc2s1 [Example 115, 4-(8-((tetrahydro-2H-pyran-4-yl)methyl)-2,8-diazaspiro[4.5]decan-2-yl)-6-(2,2,2-trifluoroethyl)thieno[2,3-d]pyrimidine] |  | 6.00 to 7.00
FC(F)(F)Cc1cc2c(N3CCC4(CCN(Cc5ccccc5)CC4)C3)ncnc2s1 [Example 116, 4-(8-benzyl-2,8-diazaspiro[4.5]decan-2-yl)-6-(2,2,2-trifluoroethyl)thieno[2,3-d]pyrimidine] |  | ≤ 6.00
Cc1c(CN2CCC3(CC2)CCN(c2ncnc4sc(CC(F)(F)F)cc24)C3)ccc2[nH]c(C#N)cc12 [Example 117, 4-methyl-5-((2-(6-(2,2,2-trifluoroethyl)thieno[2,3-d]pyrimidin-4-yl)-2,8-diazaspiro[4.5]decan-8-yl)methyl)-1H-indole-2-carbonitrile] |  | ≤ 6.00
O=C1CC2(CCN(Cc3ccc4[nH]c(=O)[nH]c4c3)C2)CN1c1ncnc2sc(CC(F)(F)F)cc12 (centres unmarked) [Example 118, 7-((2-oxo-2,3-dihydro-1H-benzoldlimidazol-5-yl)methyl)-2-(6-(2,2,2-trifluoroethyl)thieno[2,3-d]pyrimidin-4-yl)-2,7-diazaspiro[4.4]nonan-3-one] |  | 6.00 to 7.00

Source: patent publication US20190010167A1, “INHIBITORS OF THE MENIN-MLL INTERACTION” (Vitae Pharmaceuticals, Inc., priority 2015, published 2019)
